In PubChem BioAssay (NCI):
Values joined by “and” are separate entries in the source; they are usually repeats but may differ in a detail not shown here. Identical values can stand only once.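 Assay format: 96-well plates, 48-hour exposure. At the GI50, growth is halved. TGI: concentration producing complete growth inhibition.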

Tests used:
Experiment in all cases: NCI anticancer screen, dose series, 48 h
786-0 renal = test system: 786-0 renal
A498 renal = test system: A498 renal
ACHN renal = test system: ACHN renal
BT-549 breast = test system: BT-549 breast
CAKI-1 renal = test system: CAKI-1 renal
CCRF-CEM leukemia = test system: CCRF-CEM leukemia
COLO 205 colon = test system: COLO 205 colon
DU-145 prostate = test system: DU-145 prostate
EKVX NSCLC = test system: EKVX NSCLC
HCC-2998 colon = test system: HCC-2998 colon
HCT-116 colon = test system: HCT-116 colon
HCT-15 colon = test system: HCT-15 colon
HL-60(TB) leukemia = test system: HL-60(TB) leukemia
HOP-62 NSCLC = test system: HOP-62 NSCLC
HOP-92 NSCLC = test system: HOP-92 NSCLC
HS 578T breast = test system: HS 578T breast
HT29 colon = test system: HT29 colon
K-562 leukemia = test system: K-562 leukemia
KM12 colon = test system: KM12 colon
LOX IMVI melanoma = test system: LOX IMVI melanoma
M14 melanoma = test system: M14 melanoma
MALME-3M melanoma = test system: MALME-3M melanoma
MCF7 breast = test system: MCF7 breast
MDA-MB-231 breast = test system: MDA-MB-231 breast
MDA-MB-435 = test system: MDA-MB-435
MDA-MB-468 breast = test system: MDA-MB-468 breast
MOLT-4 leukemia = test system: MOLT-4 leukemia
NCI-H226 lung = test system: NCI-H226 lung
NCI-H23 lung = test system: NCI-H23 lung
NCI-H522 lung = test system: NCI-H522 lung
NCI/ADR-RES ovarian = test system: NCI/ADR-RES ovarian
OVCAR-3 ovarian = test system: OVCAR-3 ovarian
OVCAR-4 ovarian = test system: OVCAR-4 ovarian
OVCAR-5 ovarian = test system: OVCAR-5 ovarian
OVCAR-8 ovarian = test system: OVCAR-8 ovarian
PC-3 prostate = test system: PC-3 prostate
RPMI-8226 leukemia = test system: RPMI-8226 leukemia
RXF 393 renal = test system: RXF 393 renal
SF-268 CNS = test system: SF-268 CNS
SF-539 CNS = test system: SF-539 CNS
SK-MEL-2 melanoma = test system: SK-MEL-2 melanoma
SK-MEL-28 melanoma = test system: SK-MEL-28 melanoma
SK-OV-3 ovarian = test system: SK-OV-3 ovarian
SN12C renal = test system: SN12C renal
SNB-19 CNS = test system: SNB-19 CNS
SNB-75 CNS = test system: SNB-75 CNS
SR leukemia = test system: SR leukemia
SW-620 colon = test system: SW-620 colon
T-47D breast = test system: T-47D breast
TK-10 renal = test system: TK-10 renal
UACC-257 melanoma = test system: UACC-257 melanoma
UACC-62 melanoma = test system: UACC-62 melanoma
UO-31 renal = test system: UO-31 renal

COc1cc2cc(C(=O)N3C[C@@H](CCl)c4c3cc(OC(=O)N3CCN(C(=O)CCC(=O)N5CCN(C)CC5)[C@@H]5CSSC[C@@H]53)c3ccccc43)[nH]c2c(OC)c1OC
GI50 (786-0 renal): 49 nM
TGI (786-0 renal): 135 nM
GI50 (A498 renal): 122 nM and 218 nM
TGI (A498 renal): 1400 nM and 471 nM
GI50 (ACHN renal): 30.5 nM
TGI (ACHN renal): 93.2 nM
GI50 (BT-549 breast): 41 nM and 144 nM
TGI (BT-549 breast): 132 nM and 413 nM
GI50 (CAKI-1 renal): 101 nM and 172 nM
TGI (CAKI-1 renal): 1470 nM and 701 nM
GI50 (CCRF-CEM leukemia): 270 nM
TGI (CCRF-CEM leukemia): > 100000 nM
GI50 (COLO 205 colon): 49.4 nM and 145 nM
TGI (COLO 205 colon): 133 nM and 315 nM
GI50 (DU-145 prostate): 13.6 nM and 24.5 nM
TGI (DU-145 prostate): 25000 nM and 10200 nM
GI50 (EKVX NSCLC): 71.7 nM and 207 nM
TGI (EKVX NSCLC): 403 nM and 1380 nM
GI50 (HCC-2998 colon): 28.7 nM and 54.2 nM
TGI (HCC-2998 colon): 68.5 nM and 188 nM
GI50 (HCT-116 colon): 154 nM
TGI (HCT-116 colon): 11600 nM
GI50 (HCT-15 colon): 65.5 nM and 244 nM
TGI (HCT-15 colon): 1070 nM and 10500 nM
GI50 (HL-60(TB) leukemia): 53 nM and 48 nM
TGI (HL-60(TB) leukemia): 1090 nM and 2390 nM
GI50 (HOP-62 NSCLC): 41.3 nM
TGI (HOP-62 NSCLC): 231 nM
GI50 (HOP-92 NSCLC): 95.1 nM and 178 nM
TGI (HOP-92 NSCLC): 875 nM and 752 nM
GI50 (HS 578T breast): 266 nM and 292 nM
TGI (HS 578T breast): 1830 nM and 2450 nM
GI50 (HT29 colon): 57.9 nM and 142 nM
GI50 (K-562 leukemia): 122 nM and 89.1 nM
TGI (K-562 leukemia): 25000 nM and 9070 nM
GI50 (KM12 colon): 74.7 nM and 131 nM
GI50 (LOX IMVI melanoma): 37.6 nM and 69.2 nM
TGI (LOX IMVI melanoma): 114 nM and 276 nM
GI50 (M14 melanoma): 36.6 nM and 124 nM
TGI (M14 melanoma): 118 nM and 377 nM
GI50 (MALME-3M melanoma): 45.9 nM and 134 nM
TGI (MALME-3M melanoma): 102 nM and 284 nM
GI50 (MCF7 breast): 14.9 nM
TGI (MCF7 breast): 1590 nM
GI50 (MDA-MB-231 breast): 64 nM and 204 nM
TGI (MDA-MB-231 breast): 160 nM and 536 nM
GI50 (MDA-MB-435): 46.6 nM and 147 nM
TGI (MDA-MB-435): 102 nM and 298 nM
GI50 (MDA-MB-468 breast): 37.3 nM
TGI (MDA-MB-468 breast): 161 nM
GI50 (MOLT-4 leukemia): 12.4 nM and 62.8 nM
TGI (MOLT-4 leukemia): 25000 nM and 4720 nM
GI50 (NCI-H226 lung): 453 nM and 245 nM
TGI (NCI-H226 lung): 1670 nM and 3180 nM
GI50 (NCI-H23 lung): 10.3 nM and 18.6 nM
TGI (NCI-H23 lung): 50.5 nM and 88.7 nM
GI50 (NCI-H522 lung): 43.5 nM and 55.4 nM
TGI (NCI-H522 lung): 114 nM and 364 nM
GI50 (NCI/ADR-RES ovarian): 64.4 nM
TGI (NCI/ADR-RES ovarian): 268 nM
GI50 (OVCAR-3 ovarian): 53.9 nM
TGI (OVCAR-3 ovarian): 131 nM
GI50 (OVCAR-4 ovarian): 86.3 nM
TGI (OVCAR-4 ovarian): 662 nM
GI50 (OVCAR-5 ovarian): 82.8 nM
TGI (OVCAR-5 ovarian): 386 nM
GI50 (OVCAR-8 ovarian): 42.5 nM
TGI (OVCAR-8 ovarian): 160 nM
GI50 (PC-3 prostate): 57.7 nM and 479 nM
TGI (PC-3 prostate): 25000 nM and 10500 nM
GI50 (RPMI-8226 leukemia): 64.6 nM and 142 nM
TGI (RPMI-8226 leukemia): 2720 nM and 13200 nM
GI50 (RXF 393 renal): 37.4 nM and 34.7 nM
TGI (RXF 393 renal): 74.8 nM and 138 nM
GI50 (SF-268 CNS): 58.3 nM
TGI (SF-268 CNS): 608 nM
GI50 (SF-539 CNS): 38.5 nM and 38.9 nM
TGI (SF-539 CNS): 91.3 nM and 151 nM
GI50 (SK-MEL-2 melanoma): 47.1 nM and 42.8 nM
TGI (SK-MEL-2 melanoma): 93.5 nM and 131 nM
GI50 (SK-MEL-28 melanoma): 47.6 nM and 159 nM
TGI (SK-MEL-28 melanoma): 106 nM and 333 nM
GI50 (SK-OV-3 ovarian): 72.2 nM
TGI (SK-OV-3 ovarian): 374 nM
GI50 (SN12C renal): 32.8 nM
TGI (SN12C renal): 7040 nM
GI50 (SNB-19 CNS): 34 nM and 90.8 nM
TGI (SNB-19 CNS): 25000 nM and 16000 nM
GI50 (SNB-75 CNS): 41.8 nM and 79.8 nM
TGI (SNB-75 CNS): 148 nM and 354 nM
GI50 (SR leukemia): 6.22 nM and 19.5 nM
GI50 (SW-620 colon): 55.5 nM
TGI (SW-620 colon): 25000 nM
GI50 (T-47D breast): 118 nM and 229 nM
TGI (T-47D breast): 25000 nM and 19700 nM
GI50 (TK-10 renal): 663 nM and 1050 nM
TGI (TK-10 renal): 25000 nM and 22200 nM
GI50 (UACC-257 melanoma): 131 nM and 273 nM
TGI (UACC-257 melanoma): 711 nM and 1430 nM
GI50 (UACC-62 melanoma): 43.6 nM and 136 nM
TGI (UACC-62 melanoma): 158 nM and 324 nM
GI50 (UO-31 renal): 75 nM
TGI (UO-31 renal): 2840 nM
